This assay addresses T1, recombinant human secreted phospholipase A2 (Homo sapiens, UniProt P14555).
T1 sequence (P14555 21-144): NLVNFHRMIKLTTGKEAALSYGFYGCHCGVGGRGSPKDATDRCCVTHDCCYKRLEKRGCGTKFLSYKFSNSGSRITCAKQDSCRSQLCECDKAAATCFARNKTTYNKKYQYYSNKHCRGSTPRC
Nature of the assay: chromogenic assay for inhibitors of recombinant human secreted phospholipase A2. The format is biochemical. Conditions: diheptanoyl thio-PC substrate, pH 7.5, 40° C. for 30 minutes, absorbance at 405 nanometers, triplicate. The text has this:
The following chromogenic assay procedure was used to identify and evaluate inhibitors of recombinant human secreted phospholipase A2. The assay described herein has been adapted for high volume screening using 96 well microtiter plates. A general description of this assay method is found in the article, “Analysis of Human Synovial Fluid Phospholipase A2 on Short Chain Phosphatidylcholine-Mixed Micelles: Development of a Spectrophotometric Assay Suitable for a Microtiterplate Reader”, by Laure J. Reynolds, Lori L. Hughes, and Edward A Dennis, Analytical Biochemistry, 204, pp. 190-197, 1992 (the disclosure of which is incorporated herein by reference):
Adjust pH to 4.5 with acetic acid
DTNB—5,5′-dithiobis-2-nitrobenzoic acid
RACEMIC DIHEPTANOYL THIO—PC
racemic 1,2-bis(heptanoylthio)-1,2-dideoxy-sn-glycero-3-phosphorylcholine
TRITON X-100™ prepare at 6.249 mg/ml in reaction buffer to equal […].
A measured volume of racemic dipheptanoyl thio PC supplied in chloroform at a concentration of 100 mg/ml is taken to dryness and redissolved in 10 millimolar TRITON X-100™ nonionic detergent aqueous solution. Reaction Buffer is added to the solution, then DTNB to give the Reaction Mixture.
The reaction mixture thus obtained contains 1 mM diheptanoly thio-PC substrate, 0.29 mm Triton X-100™ detergent, and 0.12 mm DTMB in a buffered aqueous solution at pH 7.5.
1. Add 0.2 ml reaction mixture to all wells;
2. Add 10 ul test compound (or solvent blank) to appropriate wells, mix 20 seconds;
3. Add 50 nanograms of sPLA2 (10 microliters) to appropriate wells;
4. […]
5. Read absorbance of wells at 405 nanometers with an automatic plate reader.
Tests were done in triplicate. […] Compounds initially found to be active were re-assayed to confirm their activity and, if sufficiently active, IC50 values were determined. […] In all cases, % inhibition measured at 405 nanometers generated by enzyme reactions containing inhibitors relative to the uninhibited control reactions was determined. […] IC50 values were determined by plotting log concentration versus inhibition values in the range from 10-90% inhibition.
The term IC50 denotes the concentration at which inhibition is half-maximal. `CCc1sc2cccc(OCC(=O)O)c2c1C(=O)C(N)=O` [Example 1, (3-aminooxalyl-2-ethylbenzo[b]thiophen-4-yloxy)acetic acid]: the IC50 is 1.41 µM.

As to `CCc1sc2cccc(OCC(=O)N[C@@H](CC(C)C)C(=O)OC)c2c1C(=O)C(N)=O` [Example 2, 2(S)-[2-[(3-aminooxalyl-2-ethylbenzo [b]thiophen-4-yl)oxy]acetylamino]-4-methylpentanoic cid methylester], the IC50 stood at 64.8 µM.

`CCc1sc2cccc(OCC(=O)N[C@@H](CC(C)C)C(=O)O)c2c1C(=O)C(N)=O` [Example 3, 2(S)-[2-[(3-aminooxalyl-2-ethylbenzo [b]thiophen-4-yl)oxy]acetylamino]-4-methylpentanoic acid]: the IC50 is 10.6 µM.
